Laboratory results as given in US12371428B2 (Exelixis, Inc., priority 2019, dated 2025).
Structures can show the parent of a compound that is named as a salt.

Columns and labels:
[1] = biological target: Human KDR (residues 790-1356) (Homo sapiens (Human), UniProt P35968); test: Human KDR kinase assay, HTRF KinEase (Example B-2); assay type: biochemical; details: protocol of Example B-2 (other compounds)
Summary of the method: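 Human KDR residues 790-1356 (0.1 ng/well) in buffer with 5 mM MgCl2, 1 mM MnCl2, 1 mM DTT, biotinylated peptide substrate, ATP at Km (4.0 μM), 3% DMSO, 10 compound concentrations; 40 min, room temperature. EDTA stop, streptavidin-XL665/Eu-TK antibody HTRF read 665/620 nm; 4-parameter IC50.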

[2] = biological target: Met (phospho-Met, HGF-stimulated PC-3 prostate cancer cells) (Homo sapiens (Human), UniProt P08581); test: Met autophosphorylation ELISA in PC-3 cells (Example F); assay type: cell-based; details: cellular activity; Met autophosphorylation ELISA in PC-3 cells; read-out: c-Met IC50
Chain of Met (phospho-Met, HGF-stimulated PC-3 prostate cancer cells) (P08581 25-1390): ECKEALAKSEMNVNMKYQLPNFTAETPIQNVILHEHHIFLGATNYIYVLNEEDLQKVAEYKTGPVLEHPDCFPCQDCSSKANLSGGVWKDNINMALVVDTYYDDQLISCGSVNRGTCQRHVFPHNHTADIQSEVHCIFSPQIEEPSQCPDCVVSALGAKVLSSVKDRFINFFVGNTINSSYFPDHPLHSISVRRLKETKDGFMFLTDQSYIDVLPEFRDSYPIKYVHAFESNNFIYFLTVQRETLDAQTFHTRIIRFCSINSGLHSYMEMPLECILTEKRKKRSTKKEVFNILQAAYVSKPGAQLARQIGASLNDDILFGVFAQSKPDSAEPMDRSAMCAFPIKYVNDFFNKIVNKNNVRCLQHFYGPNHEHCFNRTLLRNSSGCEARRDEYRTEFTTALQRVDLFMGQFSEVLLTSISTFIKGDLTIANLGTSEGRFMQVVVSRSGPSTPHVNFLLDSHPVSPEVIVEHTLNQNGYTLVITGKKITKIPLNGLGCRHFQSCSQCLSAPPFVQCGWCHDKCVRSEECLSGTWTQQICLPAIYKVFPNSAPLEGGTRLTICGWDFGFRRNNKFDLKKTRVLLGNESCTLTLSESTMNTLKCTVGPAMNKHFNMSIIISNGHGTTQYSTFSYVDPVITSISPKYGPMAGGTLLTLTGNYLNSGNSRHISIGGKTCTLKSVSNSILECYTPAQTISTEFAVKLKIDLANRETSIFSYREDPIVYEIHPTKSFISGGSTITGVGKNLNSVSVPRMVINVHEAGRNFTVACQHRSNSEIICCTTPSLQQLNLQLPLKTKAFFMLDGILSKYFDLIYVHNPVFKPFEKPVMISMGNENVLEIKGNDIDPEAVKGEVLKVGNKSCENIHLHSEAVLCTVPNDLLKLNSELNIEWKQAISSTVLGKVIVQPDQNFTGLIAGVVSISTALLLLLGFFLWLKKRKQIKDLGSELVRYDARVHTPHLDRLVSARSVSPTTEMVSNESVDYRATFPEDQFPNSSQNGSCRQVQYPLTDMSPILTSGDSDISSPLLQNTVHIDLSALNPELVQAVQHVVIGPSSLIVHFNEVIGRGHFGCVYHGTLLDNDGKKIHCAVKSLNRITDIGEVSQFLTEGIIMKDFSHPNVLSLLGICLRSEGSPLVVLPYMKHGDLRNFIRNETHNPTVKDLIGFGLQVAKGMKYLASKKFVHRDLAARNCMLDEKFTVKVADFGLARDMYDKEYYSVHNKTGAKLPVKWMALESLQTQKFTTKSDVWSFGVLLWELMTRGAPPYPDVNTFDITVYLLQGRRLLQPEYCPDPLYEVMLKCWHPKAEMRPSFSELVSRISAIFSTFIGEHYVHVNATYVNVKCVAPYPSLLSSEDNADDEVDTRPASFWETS
Summary of the method: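 Compounds were tested on HGF-stimulated PC-3 cells. After 24 h culture and 3 h serum starvation, cells got compound for 1 h and 100 ng/mL HGF for 10 min, and Met tyrosine phosphorylation was measured by ELISA.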

[3] = biological target: Mer (phospho-Mer, MERTK-transfected 293A cells) (Homo sapiens (Human), UniProt Q12866); test: Mer autophosphorylation ELISA in transient transfected 293A cells (Example H); assay type: cell-based; details: cellular activity; Mer autophosphorylation ELISA in transient transfected 293A cells
Chain of Mer (phospho-Mer, MERTK-transfected 293A cells) (Q12866 21-999): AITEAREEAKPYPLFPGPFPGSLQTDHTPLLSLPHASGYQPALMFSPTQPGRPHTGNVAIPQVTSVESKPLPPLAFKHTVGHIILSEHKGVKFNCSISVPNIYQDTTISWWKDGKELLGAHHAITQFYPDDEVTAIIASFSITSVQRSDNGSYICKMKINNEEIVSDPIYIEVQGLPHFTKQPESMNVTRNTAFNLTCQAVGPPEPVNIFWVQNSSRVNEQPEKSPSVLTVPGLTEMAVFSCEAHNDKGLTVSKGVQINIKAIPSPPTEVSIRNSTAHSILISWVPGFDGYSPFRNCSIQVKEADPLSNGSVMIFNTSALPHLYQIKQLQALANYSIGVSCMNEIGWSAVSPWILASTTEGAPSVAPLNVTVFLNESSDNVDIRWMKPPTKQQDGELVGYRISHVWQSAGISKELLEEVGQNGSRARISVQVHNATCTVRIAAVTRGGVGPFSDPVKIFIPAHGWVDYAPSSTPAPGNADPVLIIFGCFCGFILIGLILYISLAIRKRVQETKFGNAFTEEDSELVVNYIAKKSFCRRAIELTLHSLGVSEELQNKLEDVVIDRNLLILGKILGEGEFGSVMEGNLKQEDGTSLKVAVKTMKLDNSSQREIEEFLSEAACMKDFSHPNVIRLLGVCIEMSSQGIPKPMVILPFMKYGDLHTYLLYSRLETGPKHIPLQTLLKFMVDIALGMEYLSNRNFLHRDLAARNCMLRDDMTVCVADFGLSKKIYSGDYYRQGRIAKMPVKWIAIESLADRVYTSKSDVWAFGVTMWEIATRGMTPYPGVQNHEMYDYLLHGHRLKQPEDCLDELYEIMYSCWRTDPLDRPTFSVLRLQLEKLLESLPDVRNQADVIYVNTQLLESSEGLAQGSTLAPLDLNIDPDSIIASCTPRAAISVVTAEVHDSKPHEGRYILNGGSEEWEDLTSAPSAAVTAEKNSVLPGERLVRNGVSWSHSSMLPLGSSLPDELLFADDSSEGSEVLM
Summary of the method: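 293A cells transiently transfected with human MERTK were treated 1 h in serum-free medium with an 8-point compound dilution (0.3% DMSO final). Lysates were assayed by phospho-Mer sandwich ELISA against a phospho-Mer standard; IC50 came from a 4-parameter logistic fit, normalised to DMSO (100%) and reference-inhibitor (0%) controls.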

[4] = biological target: Human MER (residues 528-999) (Homo sapiens (Human), UniProt Q12866); test: Human Mer kinase assay, HTRF KinEase (Example C-2); assay type: biochemical; details: protocol of Example C-2 (other compounds)
Chain of Human MER (residues 528-999) (Q12866 528-999): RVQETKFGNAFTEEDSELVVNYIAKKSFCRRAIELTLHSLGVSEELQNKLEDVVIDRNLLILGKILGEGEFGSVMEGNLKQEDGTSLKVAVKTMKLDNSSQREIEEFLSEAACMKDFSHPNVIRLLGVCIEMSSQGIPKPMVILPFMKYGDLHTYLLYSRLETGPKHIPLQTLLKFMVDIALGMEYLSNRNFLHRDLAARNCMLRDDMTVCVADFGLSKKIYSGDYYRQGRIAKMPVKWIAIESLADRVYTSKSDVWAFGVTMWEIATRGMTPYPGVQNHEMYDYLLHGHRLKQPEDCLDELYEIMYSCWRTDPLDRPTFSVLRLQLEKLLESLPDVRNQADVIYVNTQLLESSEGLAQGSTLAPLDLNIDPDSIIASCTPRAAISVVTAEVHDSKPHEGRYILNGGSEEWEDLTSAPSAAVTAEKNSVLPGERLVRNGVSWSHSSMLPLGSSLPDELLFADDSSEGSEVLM
Summary of the method: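 Recombinant MER 528-999 (1 ng/well) in buffer with 5 mM MgCl2 and 1 mM DTT was reacted with biotinylated peptide and ATP at Km (40 μM) for 60 min at room temperature. EDTA stop with SA-XL665 and Eu3+ TK antibody, then 665/620 nm HTRF read; IC50 from 4-parameter fit.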

Chain of Human KDR (residues 790-1356) (P35968 790-1356): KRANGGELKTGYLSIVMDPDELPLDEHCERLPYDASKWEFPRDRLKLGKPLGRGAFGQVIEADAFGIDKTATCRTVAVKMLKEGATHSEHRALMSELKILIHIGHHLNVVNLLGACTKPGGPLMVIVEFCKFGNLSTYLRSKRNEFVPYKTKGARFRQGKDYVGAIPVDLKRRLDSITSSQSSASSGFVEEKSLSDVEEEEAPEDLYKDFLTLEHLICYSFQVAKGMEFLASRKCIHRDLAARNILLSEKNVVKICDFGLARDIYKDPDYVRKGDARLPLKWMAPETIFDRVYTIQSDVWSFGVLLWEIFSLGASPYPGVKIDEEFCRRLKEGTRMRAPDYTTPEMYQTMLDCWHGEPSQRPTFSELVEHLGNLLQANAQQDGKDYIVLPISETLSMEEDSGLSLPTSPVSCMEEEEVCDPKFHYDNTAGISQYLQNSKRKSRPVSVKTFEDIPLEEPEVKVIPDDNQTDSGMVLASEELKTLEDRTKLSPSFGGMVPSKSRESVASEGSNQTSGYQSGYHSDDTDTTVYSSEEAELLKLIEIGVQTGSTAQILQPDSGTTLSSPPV

Compound | IC50 [1] [nM] | IC50 [2] [nM] | IC50 [3] [nM] | IC50 [4] [nM]
COc1ccc2nccc(Oc3ccc(NC(=O)c4ccc(C)n(-c5ccc(F)cc5)c4=O)cc3)c2n1 [Compound 343, 1-(4-fluorophenyl)-N-[4-[(6-methoxy-1,5-naphthyridin-4-yl)oxy]phenyl]-6-methyl-2-oxopyridine-3-carboxamide] | 100 to 300 | < 100 | < 100 | < 100
Cc1ccc(C(=O)Nc2ccc(Oc3ccnc4cc(OCc5ccccc5)cnc34)c(F)c2)c(=O)n1-c1ccc(F)cc1 [Compound 275, 1-(4-Fluorophenyl)-N-[3-fluoro-4-[(7-phenylmethoxy-1,5-naphthyridin-4-yl)oxy]phenyl]-6-methyl-2-oxopyridine-3-carboxamide] | 100 to 300 | < 100 | < 100 | < 100
COc1cnc2c(Oc3ccc(NC(=O)c4nccn(-c5ccc(F)cc5)c4=O)cc3F)ccnc2c1 [Compound 381, N-[3-fluoro-4-[(7-methoxy-1,5-naphthyridin-4-yl)oxy]phenyl]-4-(4-fluorophenyl)-3-oxopyrazine-2-carboxamide] | > 300 | < 100 | < 100 | < 100
COc1cc2nccc(Oc3cc(F)c(NC(=O)c4cn(C)c(C)c(-c5ccc(F)cc5)c4=O)cc3F)c2nc1OC [Compound 391, N-[4-[(6,7-dimethoxy-1,5-naphthyridin-4-yl)oxy]-2,5-difluorophenyl]-5-(4-fluorophenyl)-1,6-dimethyl-4-oxopyridine-3-carboxamide] | 100 to 300 | < 100 | < 100 | < 100
COCc1c(-c2ccc(F)cc2)c(=O)c(C(=O)Nc2ccc(Oc3ccnc4cc(OC)cnc34)c(F)c2)cn1C [Compound 270, N-[3-Fluoro-4-[(7-methoxy-1,5-naphthyridin-4-yl)oxy]phenyl]-5-(4-fluorophenyl)-6-(methoxymethyl)-1-methyl-4-oxopyridine-3-carboxamide] | > 300 | 100 to 300 | < 100 | < 100
CCn1cc(C(=O)Nc2ccc(Oc3ccnc4cc(OC)cnc34)cc2)c(=O)c(-c2ccc(F)cc2)c1CO [Compound 274, 1-Ethyl-5-(4-fluorophenyl)-6-(hydroxymethyl)-N-[4-[(7-methoxy-1,5-naphthyridin-4-yl)oxy]phenyl]-4-oxopyridine-3-carboxamide] | > 300 | < 100 | < 100 | < 100
COc1ccc2nccc(Oc3ccc(NC(=O)c4nccn(-c5ccc(F)cc5)c4=O)cc3F)c2n1 [Compound 380, N-[3-fluoro-4-[(6-methoxy-1,5-naphthyridin-4-yl)oxy]phenyl]-4-(4-fluorophenyl)-3-oxopyrazine-2-carboxamide] | > 300 | < 100 | < 100 | < 100
COc1cc2nccc(Oc3ccc(NC(=O)c4c(C)cc(C)n(-c5ccc(F)cc5)c4=O)cc3)c2nc1OC [Compound 288, N-[4-[(6,7-Dimethoxy-1,5-naphthyridin-4-yl)oxy]phenyl]-1-(4-fluorophenyl)-4,6-dimethyl-2-oxopyridine-3-carboxamide] | < 100 | < 100 | < 100 | < 100
COc1ccc2nccc(Oc3ccc(NC(=O)c4ncc(C)n(-c5ccc(F)cc5)c4=O)cc3)c2n1 [Compound 378, 4-(4-fluorophenyl)-N-[4-[(6-methoxy-1,5-naphthyridin-4-yl)oxy]phenyl]-5-methyl-3-oxopyrazine-2-carboxamide] | > 300 | < 100 | < 100 | < 100
COc1cc2nccc(Oc3ccc(NC(=O)c4c(C)ccn(-c5ccc(F)cc5)c4=O)cc3)c2nc1OC [Compound 299, N-[4-[(6,7-Dimethoxy-1,5-naphthyridin-4-yl)oxy]phenyl]-1-(4-fluorophenyl)-4-methyl-2-oxopyridine-3-carboxamide] | < 100 | < 100 | < 100 | < 100
Cc1ccc2nccc(Oc3ccc(NC(=O)c4c(C)cc(C)n(-c5ccc(F)cc5)c4=O)cc3F)c2n1 [Compound 297, N-[3-Fluoro-4-[(6-methyl-1,5-naphthyridin-4-yl)oxy]phenyl]-1-(4-fluorophenyl)-4,6-dimethyl-2-oxopyridine-3-carboxamide] | < 100 | < 100 | < 100 | < 100
COc1cc2nccc(Oc3ccc(NC(=O)c4cn(C)cc(-c5ccccc5)c4=O)cc3)c2nc1OC [Compound 39, N-[4-[(6,7-Dimethoxy-1,5-naphthyridin-4-yl)oxy]phenyl]-1-methyl-4-oxo-5-phenylpyridine-3-carboxamide hydrochloride] | < 100 | < 100 | < 100 | < 100

The next lines start with the values.

IC50 [1] [nM] | IC50 [2] [nM] | IC50 [3] [nM] | IC50 [4] [nM] | Compound
< 100 | < 100 | < 100 | < 100 | COc1cnc2c(Oc3ccc(NC(=O)c4c(C)ccn(-c5ccc(F)cc5)c4=O)cc3F)ccnc2c1 [Compound 294, N-[3-Fluoro-4-[(7-methoxy-1,5-naphthyridin-4-yl)oxy]phenyl]-1-(4-fluorophenyl)-4-methyl-2-oxopyridine-3-carboxamide]
> 300 | < 100 | < 100 | < 100 | COc1ccc2nccc(Oc3ccc(NC(=O)c4ncc(C)n(-c5ccc(F)cc5)c4=O)cc3F)c2n1 [Compound 264, N-[3-Fluoro-4-[(6-methoxy-1,5-naphthyridin-4-yl)oxy]phenyl]-4-(4-fluorophenyl)-5-methyl-3-oxopyrazine-2-carboxamide]
> 300 | < 100 | < 100 | < 100 | C=C(C)c1cc(C(=O)Nc2ccc(Oc3ccnc4cc(OC)c(OC)nc34)c(F)c2)c(=O)n(-c2ccc(F)cc2)c1C [Compound 367, N-[4-[(6,7-dimethoxy-1,5-naphthyridin-4-yl)oxy]-3-fluorophenyl]-1-(4-fluorophenyl)-6-methyl-2-oxo-5-prop-1-en-2-ylpyridine-3-carboxamide]
< 100 | < 100 | < 100 | < 100 | COc1cc2nccc(Oc3ccc(NC(=O)c4cn(C)c(C)c(-c5ccc(F)cc5)c4=O)cc3Cl)c2nc1OC [Compound 388, N-[3-chloro-4-[(6,7-dimethoxy-1,5-naphthyridin-4-yl)oxy]phenyl]-5-(4-fluorophenyl)-1,6-dimethyl-4-oxopyridine-3-carboxamide]
< 100 | < 100 | < 100 | < 100 | COc1cc2nccc(Oc3ccc(NC(=O)c4nccn(-c5ccc(F)cc5)c4=O)cc3F)c2nc1OC [Compound 379, N-[4-[(6,7-dimethoxy-1,5-naphthyridin-4-yl)oxy]-3-fluorophenyl]-4-(4-fluorophenyl)-3-oxopyrazine-2-carboxamide]
> 300 | < 100 | < 100 | < 100 | COc1cnc2c(Oc3ccc(NC(=O)c4cn(C)cc(-c5ccccc5)c4=O)cc3F)ccnc2c1 [Compound 40, N-[3-Fluoro-4-[(7-methoxy-1,5-naphthyridin-4-yl)oxy]phenyl]-1-methyl-4-oxo-5-phenylpyridine-3-carboxamide hydrochloride]
